The compounds below were run against IRAK4 (Homo sapiens (Human), UniProt Q9NWZ3) (assay: IRAK4 kinase activity, IMAP fluorescence polarization assay). Conditions: 100 μM ATP; read-out: IRAK4 IC50.
Assay type: biochemical
Summary of the method: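 Fluorescence polarization (IMAP nanoparticle binding of phosphopeptide) reports activity after a 30 min, 25 °C reaction. Conditions: 100 μM ATP, 0.5 nM GST-IRAK4, 100 nM fluorescent peptide, 10 mM Tris pH 7.2, 1 mM MgCl2, 1 mM DTT, 0.01% Tween 20.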

Chain of IRAK4 (Q9NWZ3 whole entry): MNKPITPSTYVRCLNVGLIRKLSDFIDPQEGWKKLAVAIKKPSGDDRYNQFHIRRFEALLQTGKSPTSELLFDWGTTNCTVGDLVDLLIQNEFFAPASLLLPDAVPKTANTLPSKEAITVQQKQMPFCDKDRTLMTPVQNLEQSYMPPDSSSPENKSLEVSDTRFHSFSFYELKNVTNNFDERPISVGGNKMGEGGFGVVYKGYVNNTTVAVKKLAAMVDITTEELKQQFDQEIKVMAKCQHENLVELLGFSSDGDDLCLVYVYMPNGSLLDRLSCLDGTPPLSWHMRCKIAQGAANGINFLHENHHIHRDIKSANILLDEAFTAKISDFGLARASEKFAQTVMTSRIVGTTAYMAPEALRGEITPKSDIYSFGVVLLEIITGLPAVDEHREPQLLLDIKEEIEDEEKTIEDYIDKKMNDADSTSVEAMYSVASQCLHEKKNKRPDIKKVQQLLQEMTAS

IC50 [nM]	Structure (SMILES)
17	O=c1[nH]c(N2CCN(c3ncc(C(F)(F)F)cc3Cl)CC2)nc(N[C@@H]2CCCNC2)c1-c1nc2ccccc2s1 [Example 133, (R)-5-(benzo[d]thiazol-2-yl)-2-(4-(3-chloro-5-(trifluoromethyl)pyridin-2-yl)piperazin-1-yl)-6-(piperidin-3-ylamino)pyrimidin-4(3H)-one]
8	O=c1[nH]c(N2CCN(c3cnccn3)CC2)nc(N[C@@H]2CCCNC2)c1-c1nc2ccccc2s1 [Example 134, (R)-5-(benzo[d]thiazol-2-yl)-6-(piperidin-3-ylamino)-2-(4-(pyrazin-2-yl)piperazin-1-yl)pyrimidin-4(3H)-one]
11	O=c1[nH]c(N2CCN(c3ccc(C(F)(F)F)cn3)CC2)nc(N[C@@H]2CCCNC2)c1-c1nc2ccccc2s1 [Example 135, (R)-5-(benzo[d]thiazol-2-yl)-6-(piperidin-3-ylamino)-2-(4-(5-(trifluoromethyl)pyridin-2-yl)piperazin-1-yl)pyrimidin-4(3H)-one]
10	O=c1[nH]c(N2CCN(c3ncccn3)CC2)nc(N[C@@H]2CCCNC2)c1-c1nc2ccccc2s1 [Example 136, (R)-5-(benzo[d]thiazol-2-yl)-6-(piperidin-3-ylamino)-2-(4-(pyrimidin-2-yl)piperazin-1-yl)pyrimidin-4(3H)-one]
25	O=c1[nH]c(N2CCN(c3cccc(Cl)n3)CC2)nc(N[C@@H]2CCCNC2)c1-c1nc2ccccc2s1 [Example 137, (R)-5-(benzo[d]thiazol-2-yl)-2-(4-(6-chloropyridin-2-yl)piperazin-1-yl)-6-(piperidin-3-ylamino)pyrimidin-4(3H)-one]
6	O=c1[nH]c(N2CCN(c3cccnc3)CC2)nc(N[C@@H]2CCCNC2)c1-c1nc2ccccc2s1 [Example 138, (R)-5-(benzo[d]thiazol-2-yl)-6-(piperidin-3-ylamino)-2-(4-(pyridin-3-yl)piperazin-1-yl)pyrimidin-4(3H)-one]
15	Cc1nonc1N1CCN(c2nc(N[C@@H]3CCCNC3)c(-c3nc4ccccc4s3)c(=O)[nH]2)CC1 [Example 139, (R)-5-(benzo[d]thiazol-2-yl)-2-(4-(4-methyl-1,2,5-oxadiazol-3-yl)piperazin-1-yl)-6-(piperidin-3-ylamino)pyrimidin-4(3H)-one]
113	O=c1[nH]c(N2CCn3cc(C(F)(F)F)nc3C2)nc(N[C@@H]2CCCNC2)c1-c1nc2ccccc2s1 [Example 140, (R)-5-(benzo[d]thiazol-2-yl)-6-(piperidin-3-ylamino)-2-(2-(trifluoromethyl)-5,6-dihydroimidazo[1,2-a]pyrazin-7(8H)-yl)pyrimidin-4(3H)-one]
5	COc1ccc(N2CCN(c3nc(N[C@@H]4CCCNC4)c(-c4nc5ccccc5s4)c(=O)[nH]3)CC2)nc1 [Example 141, (R)-5-(benzo[d]thiazol-2-yl)-2-(4-(5-methoxypyridin-2-yl)piperazin-1-yl)-6-(piperidin-3-ylamino)pyrimidin-4(3H)-one]
6	COc1ccnc(N2CCN(c3nc(N[C@@H]4CCCNC4)c(-c4nc5ccccc5s4)c(=O)[nH]3)CC2)c1 [Example 142, (R)-5-(benzo[d]thiazol-2-yl)-2-(4-(4-methoxypyridin-2-yl)piperazin-1-yl)-6-(piperidin-3-ylamino)pyrimidin-4(3H)-one]
10	COc1cccc(N2CCN(c3nc(N[C@@H]4CCCNC4)c(-c4nc5ccccc5s4)c(=O)[nH]3)CC2)n1 [Example 143, (R)-5-(benzo[d]thiazol-2-yl)-2-(4-(6-methoxypyridin-2-yl)piperazin-1-yl)-6-(piperidin-3-ylamino)pyrimidin-4(3H)-one]
8	O=c1[nH]c(N2CCN(c3ccc(Cl)cn3)CC2)nc(N[C@@H]2CCCNC2)c1-c1nc2ccccc2s1 [Example 144, (R)-5-(benzo[d]thiazol-2-yl)-2-(4-(5-chloropyridin-2-yl)piperazin-1-yl)-6-(piperidin-3-ylamino)pyrimidin-4(3H)-one]
9	O=c1[nH]c(N2CCN(c3cc(Cl)ccn3)CC2)nc(N[C@@H]2CCCNC2)c1-c1nc2ccccc2s1 [Example 145, (R)-5-(benzo[d]thiazol-2-yl)-2-(4-(4-chloropyridin-2-yl)piperazin-1-yl)-6-(piperidin-3-ylamino)pyrimidin-4(3H)-one]
16	O=c1[nH]c(N2CCN(c3ccccc3F)CC2)nc(N[C@@H]2CCCNC2)c1-c1nc2ccccc2s1 [Example 146, (R)-5-(benzo[d]thiazol-2-yl)-2-(4-(2-fluorophenyl)piperazin-1-yl)-6-(piperidin-3-ylamino)pyrimidin-4(3H)-one]
11	CS(=O)(=O)c1ccc(N2CCN(c3nc(N[C@@H]4CCCNC4)c(-c4nc5ccccc5s4)c(=O)[nH]3)CC2)c(Cl)c1 [Example 147, (R)-5-(benzo[d]thiazol-2-yl)-2-(4-(2-chloro-4-(methylsulfonyl)phenyl)piperazin-1-yl)-6-(piperidin-3-ylamino)pyrimidin-4(3H)-one]
45	O=c1[nH]c(N2CCN(c3ccccc3C(F)(F)F)CC2)nc(N[C@@H]2CCCNC2)c1-c1nc2ccccc2s1 [Example 148, (R)-5-(benzo[d]thiazol-2-yl)-6-(piperidin-3-ylamino)-2-(4-(2-(trifluoromethyl)phenyl)piperazin-1-yl)pyrimidin-4(3H)-one]
12	O=c1[nH]c(N2CCN(c3nccs3)CC2)nc(N[C@@H]2CCCNC2)c1-c1nc2ccccc2s1 [Example 149, (R)-5-(benzo[d]thiazol-2-yl)-6-(piperidin-3-ylamino)-2-(4-(thiazol-2-yl)piperazin-1-yl)pyrimidin-4(3H)-one]
14	CS(=O)(=O)c1cc(F)ccc1N1CCN(c2nc(N[C@@H]3CCCNC3)c(-c3nc4ccccc4s3)c(=O)[nH]2)CC1 [Example 150, (R)-5-(benzo[d]thiazol-2-yl)-2-(4-(4-fluoro-2-(methylsulfonyl)phenyl)piperazin-1-yl)-6-(piperidin-3-ylamino)pyrimidin-4(3H)-one]
27	O=c1[nH]c(N2CCN(c3ccccc3Cl)CC2)nc(N[C@@H]2CCCNC2)c1-c1nc2ccccc2s1 [Example 151, (R)-5-(benzo[d]thiazol-2-yl)-2-(4-(2-chlorophenyl)piperazin-1-yl)-6-(piperidin-3-ylamino)pyrimidin-4(3H)-one]
42	O=c1[nH]c(N2CCN(c3cccc(C(F)(F)F)c3)CC2)nc(N[C@@H]2CCCNC2)c1-c1nc2ccccc2s1 [Example 152, (R)-5-(benzo[d]thiazol-2-yl)-6-(piperidin-3-ylamino)-2-(4-(3-(trifluoromethyl)phenyl)piperazin-1-yl)pyrimidin-4(3H)-one]
57	O=c1[nH]c(N2CCN(c3ccc(Cl)c(Cl)c3)CC2)nc(N[C@@H]2CCCNC2)c1-c1nc2ccccc2s1 [Example 153, (R)-5-(benzo[d]thiazol-2-yl)-2-(4-(3,4-dichlorophenyl)piperazin-1-yl)-6-(piperidin-3-ylamino)pyrimidin-4(3H)-one]
10	COc1ccc(N2CCN(c3nc(N[C@@H]4CCCNC4)c(-c4nc5ccccc5s4)c(=O)[nH]3)CC2)cc1 [Example 154, (R)-5-(benzo[d]thiazol-2-yl)-2-(4-(4-methoxyphenyl)piperazin-1-yl)-6-(piperidin-3-ylamino)pyrimidin-4(3H)-one]
11	O=c1[nH]c(N2CCN(c3ccc4c(c3)OCO4)CC2)nc(N[C@@H]2CCCNC2)c1-c1nc2ccccc2s1 [Example 155, (R)-2-(4-(benzo[d][1,3]dioxol-5-yl)piperazin-1-yl)-5-(benzo[d]thiazol-2-yl)-6-(piperidin-3-ylamino)pyrimidin-4(3H)-one]
9	CS(=O)(=O)c1ccccc1N1CCN(c2nc(N[C@@H]3CCCNC3)c(-c3nc4ccccc4s3)c(=O)[nH]2)CC1 [Example 156, (R)-5-(benzo[d]thiazol-2-yl)-2-(4-(2-(methylsulfonyl)phenyl)piperazin-1-yl)-6-(piperidin-3-ylamino)pyrimidin-4(3H)-one]
8	Cc1cc(N2CCN(c3nc(N[C@@H]4CCCNC4)c(-c4nc5ccccc5s4)c(=O)[nH]3)CC2)sn1 [Example 157, (R)-5-(benzo[d]thiazol-2-yl)-2-(4-(3-methylisothiazol-5-yl)piperazin-1-yl)-6-(piperidin-3-ylamino)pyrimidin-4(3H)-one]
8	Cc1cnccc1N1CCN(c2nc(N[C@@H]3CCCNC3)c(-c3nc4ccccc4s3)c(=O)[nH]2)CC1 [Example 158, (R)-5-(benzo[d]thiazol-2-yl)-2-(4-(3-methylpyridin-4-yl)piperazin-1-yl)-6-(piperidin-3-ylamino)pyrimidin-4(3H)-one]
20	Cn1cc(N2CCN(c3nc(N[C@@H]4CCCNC4)c(-c4nc5ccccc5s4)c(=O)[nH]3)CC2)cn1 [Example 159, (R)-5-(benzo[d]thiazol-2-yl)-2-(4-(1-methyl-1H-pyrazol-4-yl)piperazin-1-yl)-6-(piperidin-3-ylamino)pyrimidin-4(3H)-one]
22	Cc1cnc(C)c(N2CCN(c3nc(N[C@@H]4CCCNC4)c(-c4nc5ccccc5s4)c(=O)[nH]3)CC2)n1 [Example 160, (R)-5-(benzo[d]thiazol-2-yl)-2-(4-(3,6-dimethylpyrazin-2-yl)piperazin-1-yl)-6-(piperidin-3-ylamino)pyrimidin-4(3H)-one]
14	COc1ccc(OC)c(N2CCN(c3nc(N[C@@H]4CCCNC4)c(-c4nc5ccccc5s4)c(=O)[nH]3)CC2)c1 [Example 161, (R)-5-(benzo[d]thiazol-2-yl)-2-(4-(2,5-dimethoxyphenyl)piperazin-1-yl)-6-(piperidin-3-ylamino)pyrimidin-4(3H)-one]
27	O=c1[nH]c(N2CCN(c3nnc(C4CC4)o3)CC2)nc(N[C@@H]2CCCNC2)c1-c1nc2ccccc2s1 [Example 162, (R)-5-(benzo[d]thiazol-2-yl)-2-(4-(5-cyclopropyl-1,3,4-oxadiazol-2-yl)piperazin-1-yl)-6-(piperidin-3-ylamino)pyrimidin-4(3H)-one]

— patent US9221809B2 (MERCK SHARP & DOHME CORP., priority 2011, dated 2015)
